Starred links: 1 amine or outer side, 2 acyl side, 3 side chain; linkers in the order of their positions; H or OH if unused. Positions of bridges follow the written chain, without caps; N, C: chain ends. Non-standard residues stand in square brackets, D forms with d. Residues, ends and D or L forms follow the SMILES beside them. Groups on a side chain read outwards from the residue. Primed or numbered codes have the meaning given here. *: point of attachment. X6 = CSCC[C@H](NC(=O)c1ccc(CNC(=O)CN2CCN(CC(=O)O)CCN(CC(=O)O)CCN(CC(=O)O)CC2)cc1)C(=O)N[C@H](C(=O)N[C@@H](CCCCN*)C(=O)O)C(C)C; Ala(piperidin-4-yl) = O=C([C@H](CC1CCN([*:3])CC1)N[*:1])[*:2]; DOTA = O=C(O)CN1CCN(CC(=O)O)CCN(CC(=O)*)CCN(CC(=O)O)CC1; PipAla = piperidinyl-alanine residue (as named); Phe(4-COOH) = N[C@@H](Cc1ccc(C(=O)O)cc1)C(=O)O; Trp(5-F) = N[C@@H](Cc1c[nH]c2ccc(F)cc12)C(=O)O; X1 = C[C@@H](c1ccccc1)[C@H](N[*:1])C(=O)[*:2]; PEG4′ = 4x 3-(2-aminoethoxy)propanoic acid; γGlu = O=C(O)[C@H](CCC(=O)[*:2])N[*:1]; 1Nal = N[C@@H](Cc1cccc2ccccc12)C(=O)O; Ala(4-THP) = N[C@@H](CC1CCOCC1)C(=O)O; Lys(Me2) = CN(C)CCCC[C@H](N)C(=O)O; Val(3-OH) = CC(C)(O)[C@H](N)C(=O)O; hCha = N[C@@H](CCC1CCCCC1)C(=O)O; PEG4 = NCCOCCOCCOCCOCCC(=O)O; Tle = CC(C)(C)[C@H](N)C(=O)O; hLeu = CC(C)CC[C@H](N)C(=O)O
T1: 2Ig B7-H3 (Homo sapiens, UniProt Q5ZPR3)
T1 sequence (Q5ZPR3 29-316 isoform Q5ZPR3-2 limits assumed): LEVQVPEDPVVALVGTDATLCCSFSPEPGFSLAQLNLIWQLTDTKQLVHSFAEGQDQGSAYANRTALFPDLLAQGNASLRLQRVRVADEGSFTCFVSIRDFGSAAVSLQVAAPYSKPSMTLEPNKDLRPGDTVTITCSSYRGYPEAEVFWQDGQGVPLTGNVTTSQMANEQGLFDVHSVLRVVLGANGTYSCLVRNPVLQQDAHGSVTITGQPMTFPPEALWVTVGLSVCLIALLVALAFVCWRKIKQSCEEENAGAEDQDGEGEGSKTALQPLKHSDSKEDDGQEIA

T2: human 4lg B7-H3 (Homo sapiens, UniProt Q5ZPR3)
T2 sequence (Q5ZPR3 29-534): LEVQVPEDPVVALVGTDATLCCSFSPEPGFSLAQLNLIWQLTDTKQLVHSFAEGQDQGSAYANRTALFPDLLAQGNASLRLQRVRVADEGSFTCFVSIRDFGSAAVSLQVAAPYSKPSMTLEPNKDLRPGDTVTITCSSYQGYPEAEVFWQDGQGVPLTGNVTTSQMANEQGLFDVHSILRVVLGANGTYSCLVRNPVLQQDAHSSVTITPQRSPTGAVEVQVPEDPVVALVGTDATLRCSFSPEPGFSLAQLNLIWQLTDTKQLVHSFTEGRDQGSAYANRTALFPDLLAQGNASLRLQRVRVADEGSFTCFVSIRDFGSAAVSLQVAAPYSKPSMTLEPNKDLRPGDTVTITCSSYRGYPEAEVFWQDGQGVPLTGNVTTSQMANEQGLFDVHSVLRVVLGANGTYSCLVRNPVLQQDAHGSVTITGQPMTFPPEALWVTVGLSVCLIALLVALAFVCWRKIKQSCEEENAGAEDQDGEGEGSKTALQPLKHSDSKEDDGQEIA

T3: B7-H3 on Calu-6 cells (human, UniProt Q5ZPR3 29-534)
T3 construct: whole, on cells
T3 sequence (looked up): T2 sequence (Q5ZPR3 29-534)

B1: Cpd 288 (peptide)
peptide: Ac-[hLeu]YCVGK[Ala(4-THP)]DVYC[Trp(5-F)]FP[dK](DOTA)-OH
modifications: disulfide 3-11
SMILES: CC(=O)N[C@@H](CCC(C)C)C(=O)N[C@@H](Cc1ccc(O)cc1)C(=O)N[C@H]1CSSC[C@@H](C(=O)N[C@@H](Cc2c[nH]c3ccc(F)cc23)C(=O)N[C@@H](Cc2ccccc2)C(=O)N2CCC[C@H]2C(=O)N[C@H](CCCCNC(=O)CN2CCN(CC(=O)O)CCN(CC(=O)O)CCN(CC(=O)O)CC2)C(=O)O)NC(=O)[C@H](Cc2ccc(O)cc2)NC(=O)[C@H](C(C)C)NC(=O)[C@H](CC(=O)O)NC(=O)[C@H](CC2CCOCC2)NC(=O)[C@H](CCCCN)NC(=O)CNC(=O)[C@H](C(C)C)NC1=O

Tests used:
2Ig B7-H3 = biological target: T1, 2Ig B7-H3; assay: SPR binding affinity to 2Ig B7-H3; conditions: 37° C.; read-out: 2Ig B7-H3_KD (nM) at 37° C.
human 4lg B7-H3 = biological target: T2, human 4lg B7-H3; assay: Affinity determination by surface plasmon resonance (SPR) to 4Ig B7-H3; conditions: SPR KD—37° C., 4Ig B7-H3; 37° C. flow cell temperature
Calu-6 cell line [1] = assay: Cell associated (bound) fraction of [177Lu]Lu-labeled peptide in Calu-6 cells; type: cell-based, Human; conditions: 1 hour, 37° C.
Procedure, shortened: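 Detached B7-H3-expressing human lung cancer cells at 5 million/mL were exposed for 1 hour at 37 °C to 0.8 μCi of the 177Lu-labelled peptide, which was formulated in 1% PBSA after labelling at 80 °C, pH ~5. Supernatant and two cold washes counted as unbound, and resuspended cells gamma-counted as the cell-associated fraction.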

Calu-6 cell line [2] = assay: Net internalization of [177Lu]Lu-labeled peptide in Calu-6 cells; type: cell-based, Human; conditions: 1 hour, 37° C., glycine pH 2.5 acid wash
Procedure, shortened: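 Calu-6 cells, human non-engineered lung cancer expressing B7-H3, resuspended in 1% PBSA at 5 million cells/mL and incubated with the 177Lu-labeled conjugate (labeled at 80 °C, pH ~5, RP-HPLC checked). Gamma counting of the bound fraction, then of the pellet after two glycine pH 2.5 acid strips and NaOH lysis, gives internalized activity.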

[3] = biological target: Biotinylated human 4Ig B7-H3 (human) (UniProt Q5ZPR3); assay: SPR 37C; A = KD<=1.0 nM
B7-H3 on Calu-6 cells = biological target: T3, B7-H3 on Calu-6 cells; assay: 177Lu-labelled peptide on Calu-6 cells, % cell associated fraction; B = 25<%<=50

Molecule	Kd (2Ig B7-H3) [nM]	Kd (human 4lg B7-H3) [nM]	% cell associated fraction (Calu-6 cell line [1])	% net internalization (Calu-6 cell line [2])	KD [3] [nM]	% cell associated fraction (B7-H3 on Calu-6 cells) [%]
CC(=O)N[C@@H](CCC(C)C)C(=O)N[C@@H](Cc1ccc(O)cc1)C(=O)N[C@H]1CSSC[C@@H](C(=O)N[C@@H](Cc2c[nH]c3ccc(F)cc23)C(=O)N[C@@H](Cc2ccccc2)C(=O)N[C@H](C(=O)O)C(C)(C)O)NC(=O)[C@H](Cc2ccc(O)cc2)NC(=O)[C@H](C(C)C)NC(=O)[C@H](CC(=O)O)NC(=O)[C@H](CC2CCN(C(=O)CN3CCN(CC(=O)O)CCN(CC(=O)O)CCN(CC(=O)O)CC3)CC2)NC(=O)[C@H](CCCCN)NC(=O)CNC(=O)[C@H](C(C)(C)C)NC1=O [compound 344, Ac-hLeu-Y-C-Tbg-G-K-Pip(DOTA)Ala-D-V-Y-C-5FW-F-hydroxyVal-COOH] (Ac-[hLeu]YC[Tle]GK[Ala(piperidin-4-yl)](DOTA)DVYC[Trp(5-F)]F[Val(3-OH)]-OH; disulfide 3-11)	6200	1 to 10	–	–	–	–
CC(=O)N[C@@H](CCC(C)C)C(=O)N[C@@H](Cc1ccc(O)cc1)C(=O)N[C@H]1CSSC[C@@H](C(=O)N[C@@H](Cc2c[nH]c3ccc(F)cc23)C(=O)N[C@@H](Cc2ccccc2)C(=O)N[C@H](C(=O)N[C@H](CO)C(N)=O)C(C)(C)O)NC(=O)[C@H](Cc2ccc(O)cc2)NC(=O)[C@H](C(C)C)NC(=O)[C@H](CC(=O)O)NC(=O)[C@H](CC2CCN(C(=O)CCOCCOCCOCCOCCNC(=O)CN3CCN(CC(=O)O)CCN(CC(=O)O)CCN(CC(=O)O)CC3)CC2)NC(=O)[C@H](CCCCN)NC(=O)CNC(=O)[C@H](C(C)(C)C)NC1=O [compound 408, Ac-hLeu-Y-C-Tbg-G-K-Pip(PEG4-DOTA)Ala-D-V-Y-C-5FW-F-hydroxyVal-dSer-CONH2] (Ac-[hLeu]YC[Tle]GK[Ala(piperidin-4-yl)]([PEG4-DOTA])DVYC[Trp(5-F)]F[Val(3-OH)][dS]-NH2; disulfide 3-11)	920	< 1	C (%>50)	A (%≤25)	–	–
CC(=O)N[C@@H](CCC(C)C)C(=O)N[C@@H](Cc1ccc(O)cc1)C(=O)N[C@H]1CSSC[C@@H](C(=O)N[C@@H](Cc2c[nH]c3ccc(F)cc23)C(=O)N[C@@H](Cc2ccccc2)C(=O)N[C@H](C(=O)N[C@H](CCC(=O)O)C(N)=O)C(C)(C)O)NC(=O)[C@H](Cc2ccc(O)cc2)NC(=O)[C@H](C(C)C)NC(=O)[C@H](CC(=O)O)NC(=O)[C@H](CC2CCN(C(=O)CCOCCOCCOCCOCCNC(=O)CN3CCN(CC(=O)O)CCN(CC(=O)O)CCN(CC(=O)O)CC3)CC2)NC(=O)[C@H](CCCCN)NC(=O)CNC(=O)[C@H](C(C)(C)C)NC1=O [compound 410, Ac-hLeu-Y-C-Tbg-G-K-Pip(PEG4-DOTA)Ala-D-V-Y-C-5FW-F-hydroxyVal-dGlu-CONH2] (Ac-[hLeu]YC[Tle]GK[Ala(piperidin-4-yl)]([PEG4-DOTA])DVYC[Trp(5-F)]F[Val(3-OH)][dE]-NH2; disulfide 3-11)	820	< 1	B (25<%≤50)	A (%≤25)	–	–
CC(=O)N[C@@H](CCC(C)C)C(=O)N[C@@H](Cc1ccc(O)cc1)C(=O)N[C@H]1CSSC[C@@H](C(=O)N[C@@H](Cc2c[nH]c3ccc(F)cc23)C(=O)N[C@@H](Cc2ccccc2)C(=O)N[C@H](C(=O)N[C@H](CCC(=O)O)C(N)=O)C(C)(C)O)NC(=O)[C@H](Cc2ccc(O)cc2)NC(=O)[C@H](C(C)C)NC(=O)[C@H](CC(=O)O)NC(=O)[C@H](CC2CCOCC2)NC(=O)[C@H](CC2CCN(C(=O)CC[C@H](NC(=O)CN3CCN(CC(=O)O)CCN(CC(=O)O)CCN(CC(=O)O)CC3)C(=O)O)CC2)NC(=O)CNC(=O)[C@H](C(C)(C)C)NC1=O [compound 475, Ac-hLeu-Y-C-Tbg-G-Pip(gE-DOTA)Ala-ThpA-D-V-Y-C-5FW-F-hydroxyVal-dGlu-CONH2] (Ac-[hLeu]YC[Tle]G[Ala(piperidin-4-yl)]([γGlu-DOTA])[Ala(4-THP)]DVYC[Trp(5-F)]F[Val(3-OH)][dE]-NH2; disulfide 3-11)	> 10000	1 to 10	–	–	–	–
CSCC[C@H](NC(=O)c1ccc(CNC(=O)CN2CCN(CC(=O)O)CCN(CC(=O)O)CCN(CC(=O)O)CC2)cc1)C(=O)N[C@H](C(=O)N[C@@H](CCCCNC(=O)CC[C@@H]1NC(=O)CNC(=O)[C@H](C(C)(C)C)NC(=O)[C@@H](NC(=O)[C@H](Cc2ccc(O)cc2)NC(=O)[C@H](CCC(C)C)NC(C)=O)CSSC[C@@H](C(=O)N[C@@H](Cc2c[nH]c3ccc(F)cc23)C(=O)N[C@H](C(=O)N[C@H](C(=O)N[C@H](CO)C(=O)O)C(C)(C)O)[C@@H](C)c2ccccc2)NC(=O)[C@H](Cc2ccc(O)cc2)NC(=O)[C@H](C(C)C)NC(=O)[C@H](CC(=O)O)NC(=O)[C@H](CC2CCOCC2)NC1=O)C(=O)O)C(C)C [compound 519, Ac-hLeu-Y-C-Tbg-G-Glu[&Lys(OH)-Val-Met-AmBz-DOTA]-ThpA-D-V-Y-C-5FW-[(2S, 3S)beta-Me-Phe]-hydroxyVal-dSer-COOH] (Ac-[hLeu]YC[Tle]GE(X6)[Ala(4-THP)]DVYC[Trp(5-F)][X1][Val(3-OH)][dS]-OH; disulfide 3-11)	510	< 1	–	–	–	–
CC(=O)N[C@@H](CCC(C)C)C(=O)N[C@@H](Cc1ccc(O)cc1)C(=O)N[C@H]1CSSC[C@@H](C(=O)N[C@@H](Cc2c[nH]c3ccc(F)cc23)C(=O)N[C@H](C(=O)N[C@H](C(=O)N[C@H](C)C(=O)O)C(C)(C)O)[C@@H](C)c2ccccc2)NC(=O)[C@H](Cc2ccc(O)cc2)NC(=O)[C@H](C(C)C)NC(=O)[C@H](CC(=O)O)NC(=O)[C@H](CC2CCN(C(=O)CCOCCOCCOCCOCCNC(=O)CN3CCN(CC(=O)O)CCN(CC(=O)O)CCN(CC(=O)O)CC3)CC2)NC(=O)[C@H](CCCCN(C)C)NC(=O)CNC(=O)[C@H](C(C)(C)C)NC1=O [compound 521, Ac-hLeu-Y-C-Tbg-G-Lys(Me)2-Pip(PEG4-DOTA)Ala-D-V-Y-C-5FW-[(2S, 3S)beta-Me-Phe]-hydroxyVal-dAla-COOH] (Ac-[hLeu]YC[Tle]G[Lys(Me2)][Ala(piperidin-4-yl)]([PEG4-DOTA])DVYC[Trp(5-F)][X1][Val(3-OH)][dA]-OH; disulfide 3-11)	260	< 1	–	–	–	–
Ac-[hLeu]YC[Tle]G[Ala(piperidin-4-yl)][Phe(4-COOH)]DVYC[1Nal]FP[dK](DOTA)-NH2 (disulfide 3-11 (inferred)) [Cpd 314]	–	–	–	–	< 1	–
Ac-[hCha]YC[Tle]G[PipAla]([PEG4′-DOTA])[Ala(4-THP)]DVYC[Trp(5-F)]F[Val(3-OH)][dA]-OH (disulfide 3-11 (inferred)) [Cpd 485]	–	–	–	–	< 1	–
B1	–	–	–	–	–	25 to 50
